Patent publication US7410963B2, “Benzo-1,4-diazepin-2-one derivatives as phosphodiesterase PDE2 inhibitors, preparation and therapeutic use thereof” (VIA Pharmaceuticals, Inc., priority 2003, dated 2008)
Like-named read-outs stand apart in the source and are kept apart here.

Target: T1, PDE2 (Bos taurus, UniProt P14099)
T1 sequence (P14099 1-921): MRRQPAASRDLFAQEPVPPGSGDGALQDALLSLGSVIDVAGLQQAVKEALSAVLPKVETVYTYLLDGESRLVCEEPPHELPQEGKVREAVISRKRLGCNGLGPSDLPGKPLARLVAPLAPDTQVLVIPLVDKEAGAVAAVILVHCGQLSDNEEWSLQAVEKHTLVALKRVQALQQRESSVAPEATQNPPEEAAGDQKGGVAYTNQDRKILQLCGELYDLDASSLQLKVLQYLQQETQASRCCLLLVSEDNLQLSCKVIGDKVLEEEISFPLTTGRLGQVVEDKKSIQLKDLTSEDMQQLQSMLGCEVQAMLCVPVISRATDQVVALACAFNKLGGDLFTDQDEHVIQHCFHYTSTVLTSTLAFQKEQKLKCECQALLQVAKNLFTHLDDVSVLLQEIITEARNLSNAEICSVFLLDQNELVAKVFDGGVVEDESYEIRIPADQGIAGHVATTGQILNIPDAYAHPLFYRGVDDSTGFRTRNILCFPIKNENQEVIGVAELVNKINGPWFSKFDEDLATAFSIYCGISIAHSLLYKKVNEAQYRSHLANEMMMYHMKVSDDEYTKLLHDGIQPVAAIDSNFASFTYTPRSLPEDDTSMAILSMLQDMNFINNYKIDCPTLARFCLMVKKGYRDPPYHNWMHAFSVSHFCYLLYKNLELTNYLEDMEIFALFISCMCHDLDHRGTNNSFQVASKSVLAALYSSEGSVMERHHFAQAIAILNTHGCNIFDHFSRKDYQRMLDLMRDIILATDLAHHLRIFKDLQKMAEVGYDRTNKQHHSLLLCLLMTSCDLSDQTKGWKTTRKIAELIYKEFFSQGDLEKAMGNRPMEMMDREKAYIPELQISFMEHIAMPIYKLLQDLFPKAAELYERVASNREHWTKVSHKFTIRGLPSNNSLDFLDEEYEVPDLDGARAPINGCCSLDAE
Assay: Radioenzymatic phosphodiesterase assay: PDE2 inhibition
Assay type: biochemical, bovine
Conditions: for inhibition at 10 µM: read-out: PDE2 percentage of inhibition at 10 μM
Description: Nucleoside radioactivity was determined by liquid scintillation.

SMILES	inhibition at 10 µM (Table 1, 10 μM test compound) [%]	also measured
COc1cccc(OC)c1-c1ccc2c(c1)C(c1cccc(C#N)c1)=NCC(=O)N2C [Example 16, 3-[7-(2,6-Dimethoxy-phenyl)-1-methyl-2-oxo-2,3-dihydro-1H-benzo[e][1,4]diazepin-5-yl]-benzonitrile]	100	
COc1ccc(-c2ccc3c(c2)C(c2cccc(C#N)c2)=NCC(=O)N3C)c(OC)c1 [Example 17, 3-[7-(2,4-Dimethoxy-phenyl)-1-methyl-2-oxo-2,3-dihydro-1H-benzo[e][1,4]diazepin-5-yl]-benzonitrile]		inhibition at 10 µM: 98%
CCOc1cc2c(cc1-c1ccccc1)C(c1ccccc1)=NCC(=O)N2CC [Example 18, 8-Ethoxy-1-ethyl-5,7-diphenyl-1,3-dihydro-benzo[e][1,4]diazepin-2-one]	27	
COc1cc2c(cc1-c1ccc(F)cc1)C(c1cccc(C(N)=O)c1)=NCC(=O)N2C [Example 20, 3-[7-(4-Fluoro-phenyl)-8-methoxy-1-methyl-2-oxo-2,3-dihydro-1H-benzo[e][1,4]diazepin-5-yl]-benzamide]	99	
COc1cc2c(cc1-c1cccc(Cl)c1)C(c1cccc(C(N)=O)c1)=NCC(=O)N2C [Example 24, 3-[7-(3-Chloro-phenyl)-8-methoxy-1-methyl-2-oxo-2,3-dihydro-1H-benzo[e][1,4]diazepin-5-yl]-benzamide]	98	
COc1cc2c(cc1-c1ccc(Cl)cc1)C(c1cccc(C(N)=O)c1)=NCC(=O)N2C [Example 25, 3-[7-(4-Chloro-phenyl)-8-methoxy-1-methyl-2-oxo-2,3-dihydro-1H-benzo[e][1,4]diazepin-5-yl]-benzamide]	97	
COc1cc2c(cc1-c1ccco1)C(c1cccc(C(N)=O)c1)=NCC(=O)N2C [Example 26, 3-(7-Furan-2-yl-8-methoxy-1-methyl-2-oxo-2,3-dihydro-1H-benzo[e][1,4]diazepin-5-yl)-benzamide]	71	
CN1C(=O)CN=C(c2cccc(C(N)=O)c2)c2cc(-c3ccccc3)ccc21 [Example 27, 3-(1-methyl-2-oxo-7-phenyl-2,3-dihydro-1H-benzo[e][1,4]diazepin-5-yl)-benzamide]		inhibition at 10 µM: 96%
COc1ccccc1-c1ccc2c(c1)C(c1cccc(C(N)=O)c1)=NCC(=O)N2C [Example 28, 3-[7-(2-methoxy-phenyl)-1-methyl-2-oxo-2,3-dihydro-1H-benzo[e][1,4]diazepin-5-yl]-benzamide]	97	
COc1cccc(-c2ccc3c(c2)C(c2cccc(C(N)=O)c2)=NCC(=O)N3C)c1 [Example 29, 3-[7-(3-methoxy-phenyl)-1-methyl-2-oxo-2,3-dihydro-1H-benzo[e][1,4]diazepin-5-yl]-benzamide]	95	
COc1ccc(-c2ccc3c(c2)C(c2cccc(C(N)=O)c2)=NCC(=O)N3C)cc1 [Example 30, 3-[7-(4-methoxy-phenyl)-1-methyl-2-oxo-2,3-dihydro-1H-benzo[e][1,4]diazepin-5-yl]-benzamide]	95	
COc1ccc(-c2ccc3c(c2)C(c2cccc(C(N)=O)c2)=NCC(=O)N3C)c(OC)c1 [Example 33, 3-[7-(2,4-Dimethoxy-phenyl)-1-methyl-2-oxo-2,3-dihydro-1H-benzo[e][1.4]diazepin-5-yl]-benzamide]		PDE2 percentage of inhibition at 10 μM (Table 1, 10 μM test compound): 99%
COc1cc2c(cc1-c1ccc(C(N)=O)cc1)C(c1cccc(C(N)=O)c1)=NCC(=O)N2 [Example 34, 3-[8-Methoxy-7-(4-benzamide)-2-oxo-2,3-dihydro-1H-benzo[e][1,4]diazepin-5-yl]-benzamide]		PDE2 percentage of inhibition at 10 μM (Table 1, 10 μM test compound): 98%
CCCCCCN1C(=O)CN=C(c2cccc(C#N)c2)c2cc(-c3ccccc3OC)c(OC)cc21 [Example 35, 3-[1-Hexyl-8-methoxy-7-(2-methoxy-phenyl)-2-oxo-2,3-dihydro-1H-benzo[e][1,4]diazepin-5-yl]-benzonitrile]		inhibition at 10 µM: 39%
COc1ccccc1-c1cc2c(cc1OC)NC(=O)CN=C2c1cccc(C(N)=O)c1 [Example 36, 3-[8-Methoxy-7-(2-methoxy-phenyl)-2-oxo-2,3-dihydro-1H-benzo[e][1,4]diazepin-5-yl]-benzamide]	94	
